Structures can show the parent of a compound that is named as a salt.
What was measured:
Type in all cases: cell-based
[1] = target: T1, α-1A adrenoceptor (rat vas deferens) (Rattus norvegicus, UniProt P43140); assay: Functional antagonism: phenylephrine (PE)-induced contraction of rat vas deferens; details: vs phenylephrine, Schild plot; for Kb: read-out: pA2 Rat Vas Deferens [α-1A] (converted)
T1 construct: PE-induced contraction of rat vas deferens; from tissue; host or cells: rat vas deferens
T1 sequence (P43140 1-466): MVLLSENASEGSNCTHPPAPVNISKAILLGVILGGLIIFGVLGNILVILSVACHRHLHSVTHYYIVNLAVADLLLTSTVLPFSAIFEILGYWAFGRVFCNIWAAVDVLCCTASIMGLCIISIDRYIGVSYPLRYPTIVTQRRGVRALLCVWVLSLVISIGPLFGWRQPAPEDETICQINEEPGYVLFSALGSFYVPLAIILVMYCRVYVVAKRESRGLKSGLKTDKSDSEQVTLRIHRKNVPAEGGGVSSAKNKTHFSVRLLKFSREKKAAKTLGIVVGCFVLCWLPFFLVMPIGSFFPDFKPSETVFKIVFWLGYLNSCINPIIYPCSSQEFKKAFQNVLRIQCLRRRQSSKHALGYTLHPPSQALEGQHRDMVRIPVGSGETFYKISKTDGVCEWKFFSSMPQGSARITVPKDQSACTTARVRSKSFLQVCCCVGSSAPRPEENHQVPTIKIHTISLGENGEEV
Text: (§1) Functional assays indicative of pharmacologically defined α-1 adrenoceptors were used to further characterize compounds. Inhibition of phenylephrine (PE)-induced contraction of canine prostate smooth muscle can be correlated with α-1A adrenoceptor activation. […] For each of these models, agonist dose response curves were repeated against increasing concentrations of test agent to derive a Schild plot [log ([…]) against log (molarity of test agent)] to determine the pA2.

[2] = target: T2, α-1B adrenoceptor (rat spleen) (Rattus norvegicus, UniProt P15823); assay: Functional antagonism: phenylephrine (PE)-induced contraction of rat spleen; details: for Kb: read-out: pA2 Rat Spleen [α-1B] (converted)
T2 construct: PE-induced contraction of rat spleen; from tissue; host or cells: rat spleen
T2 sequence (P15823 1-515): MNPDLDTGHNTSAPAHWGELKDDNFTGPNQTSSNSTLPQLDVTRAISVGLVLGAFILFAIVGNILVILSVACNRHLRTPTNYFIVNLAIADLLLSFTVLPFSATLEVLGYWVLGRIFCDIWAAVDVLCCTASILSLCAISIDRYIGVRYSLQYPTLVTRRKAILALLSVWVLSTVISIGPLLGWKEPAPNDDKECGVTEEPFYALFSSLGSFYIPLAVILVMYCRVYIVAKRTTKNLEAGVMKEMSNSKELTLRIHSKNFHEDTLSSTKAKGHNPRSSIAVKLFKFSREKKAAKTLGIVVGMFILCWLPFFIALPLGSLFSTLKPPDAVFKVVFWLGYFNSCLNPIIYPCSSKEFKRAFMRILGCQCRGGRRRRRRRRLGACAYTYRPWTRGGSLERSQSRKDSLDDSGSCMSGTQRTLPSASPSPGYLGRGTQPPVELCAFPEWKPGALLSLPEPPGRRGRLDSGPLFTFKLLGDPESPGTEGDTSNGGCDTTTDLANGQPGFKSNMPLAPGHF
Text: as §1

[3] = target: T3, α-1A adrenoceptor (dog prostate) (Canis lupus, UniProt A0A8I3NK63); assay: Functional antagonism: phenylephrine (PE)-induced contraction of canine prostate strips; details: vs phenylephrine, Schild plot
T3 sequence (A0A8I3NK63 1-466): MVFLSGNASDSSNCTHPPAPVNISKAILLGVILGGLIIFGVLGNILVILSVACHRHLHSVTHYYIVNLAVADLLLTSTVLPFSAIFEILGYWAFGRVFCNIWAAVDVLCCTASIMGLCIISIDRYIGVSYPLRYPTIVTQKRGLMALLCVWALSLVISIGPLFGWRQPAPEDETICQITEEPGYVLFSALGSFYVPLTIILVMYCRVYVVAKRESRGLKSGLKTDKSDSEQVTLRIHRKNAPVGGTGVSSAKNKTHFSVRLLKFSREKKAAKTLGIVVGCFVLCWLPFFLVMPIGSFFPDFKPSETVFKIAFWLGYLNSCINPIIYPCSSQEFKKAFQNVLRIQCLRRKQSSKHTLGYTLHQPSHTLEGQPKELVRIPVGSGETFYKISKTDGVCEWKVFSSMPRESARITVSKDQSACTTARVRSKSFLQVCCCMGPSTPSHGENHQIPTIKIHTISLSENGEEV
Text: as §1
Canine prostate strips were used in vitro as previously described (Hieble, J. P., Boyce, A. J. and Caine, M., Fed. Proc., 45:2609-2614 (1986)), to determine antagonist potencies against phenylephrine-induced contractions.

| Kb [1] [nM] | Kb ([2]; vs phenylephrine, Schild plot) [nM] | pA2 Dog Prostate [α-1A] ([3]; Table 2a) | pA2 Dog Prostate [α-1A] ([3]; Table 2b) | SMILES | further results |
| --- | --- | --- | --- | --- | --- |
| 4.27 | 21.4 | 8.74 |  | COc1cccc2c1CC[C@H]1CN(CCn3c(=O)[nH]c4c(sc5ccccc54)c3=O)C[C@@H]21 (relative stereo) [Example 1, hydrochloride] |  |
| 13.8 | 148 | 7.79 |  | COc1cccc2c1[C@@H]1CN(CCn3c(=O)[nH]c4c(sc5ccccc54)c3=O)C[C@@H]1CC2 (relative stereo) [Example 5, 3-[2-(cis-9-Methoxy-2,3,3a,4,5,9b-hexahydro-[1H]-benz[e]isoindol-1-yl)ethyl]-[1]benzothieno[3,2-d]pyrimidine-2,4(1H,3H)-dione hydrochloride] |  |
| 3.09 | 30.2 | 8.37 |  | COc1cccc2c1CC[C@@H]1CN(CCn3c(=O)[nH]c4c(sc5ccccc54)c3=O)C[C@@H]21 (relative stereo) [Example 10, 3-[2-(trans-6-Methoxy-2,3,3a,4,5,9b-hexahydro-[[1H]-benz[e]isoindol-1-yl)ethyl]-[1]benzothieno[3,2-d]pyrimidine-2,4(1H,3H)-dione hydrochloride] |  |
| 2.82 | 51.3 | 8.57 |  | COc1cccc2c1CC[C@H]1CN(CCn3c(=O)c4sc5ccccc5c4n(C)c3=O)C[C@@H]21 (relative stereo) [Example 11, hydrochloride] |  |
| 2.69 | 23.4 | 8.23 |  | COc1cccc2c1CC[C@H]1CN(CCn3c(=O)[nH]c4c([nH]c5ccccc54)c3=O)C[C@@H]21 (relative stereo) [Example 14, hydrochloride] |  |
| 10.7 | 63.1 | 8.29 |  | COc1cccc2c1CC[C@@H]1CN(CCn3c(=O)[nH]c4c([nH]c5ccccc54)c3=O)C[C@@H]21 (relative stereo) [Example 17, 3-[2-(trans-6-Methoxy-2,3,3a,4,5,9b-hexahydro-[[1H]-benz[e]isoindol-1-yl)ethyl]-1H-pyrimido[5,4-b]indole-2,4(3H,5H)-dione hydrochloride] |  |
| 13.8 | 13.5 | 8.37 |  | COc1cccc2c1CC[C@@H]1CN(CCn3c(=O)[nH]c4c(oc5ccccc54)c3=O)C[C@@H]21 (relative stereo) [Example 18, 3-[2-(trans-6-Methoxy-2,3,3a,4,5,9b-hexahydro-[[1H]-benz[e]isoindol-1-yl)ethyl]-benzofuro[3,2-d]pyrimidine-2,4(1H,3H)-dione hydrochloride] |  |
| 5.13 | 151 | 8.97 |  | COc1cccc2c1CC[C@H]1CN(CCn3c(=O)[nH]c4c(sc5ncccc54)c3=O)C[C@@H]21 (relative stereo) [Example 23, hydrochloride] |  |
| 2.19 | 174 | 8.27 |  | COc1cccc2c1CC[C@H]1CN(CCn3c(=O)[nH]c4c(ccc5ccccc54)c3=O)C[C@@H]21 (relative stereo) [Example 25, hydrochloride] |  |
|  |  | 8.18 |  | O=c1[nH]c2c(sc3cccnc32)c(=O)n1CCN1C[C@@H]2CCc3c(ccc4c3OCO4)[C@@H]2C1 (relative stereo) [Example 112, dihydrochloride] | pA2 Rat Vas Deferens [α-1A] [1]: 7.92; pA2 Rat Spleen [α-1B] ([2]; vs phenylephrine, Schild plot): 7.2 |
| 17.4 | 55 | 7.63 |  | COc1cccc2c1CC[C@@H]1CN(CCn3c(=O)[nH]c4c(sc5ccccc54)c3=O)C[C@H]21 [Example 8, 3-[2-((3aS,9bS)-cis-6-Methoxy-2,3,3a,4,5,9b-hexahydro-[1H]-benz[e]isoindol-1-yl)ethyl][1]benzothieno[3,2]pyrimidine-2,4(1H,3H)-dione hydrochloride] |  |
|  |  |  | 6.66 | COc1cccc2c1CC[C@H]1CN(CCn3c(=O)[nH]c4c(sc5nc(-c6ccccc6)cnc54)c3=O)C[C@@H]21 [Example 91, hydrochloride] |  |
|  |  |  | 9.1 | COc1cccc2c1CC[C@H]1CN(CCn3c(=O)[nH]c4c(sc5nc(C)cnc54)c3=O)C[C@@H]21 [Example 92, hydrochloride] |  |
|  |  |  | 9.07 | COc1cccc2c1CC[C@H]1CN(CCn3c(=O)c4sc5nccnc5c4n(C)c3=O)C[C@@H]21 [Example 95, hydrochloride] |  |
|  |  |  | 7.46 | COc1cccc2c1CC[C@H]1CN(CCn3c(=O)c4sc5nccnc5c4n(Cc4ccccc4)c3=O)C[C@@H]21 [Example 96, hydrochloride] |  |
|  |  |  | 9.66 | COc1cccc2c1CC[C@H]1CN(CCn3c(=O)[nH]c4c([nH]c5ccncc54)c3=O)C[C@@H]21 [Example 97, hydrochloride] |  |
|  |  |  | 9.39 | CCn1c(=O)n(CCN2C[C@@H]3CCc4c(OC)cccc4[C@@H]3C2)c(=O)c2sc3nccnc3c21 [Example 98, hydrochloride] |  |
|  |  |  | 7.92 | COc1cccc2c1CC[C@H]1CN(CCn3c(=O)[nH]c4c(sc5ncc(-c6ccccc6)nc54)c3=O)C[C@@H]21 [Example 99, hydrochloride] |  |
|  |  |  | 6.92 | COc1cccc2c1CC[C@H]1CN(CCn3c(=O)[nH]c4c(sc5nc(-c6ccccc6)c(-c6ccccc6)nc54)c3=O)C[C@@H]21 [Example 100, 3-[2-(cis-(3aR,9bR)-6-Methoxy-2,3,3a,4,5,9b-hexahydro-[1H]-benz[e]isoindol-1-yl)ethyl]-7,8-diphenylpyrazino[2',3':4,5]thieno[3,2-d]pyrimidine-2,4(1H,3H)-dione hydrochloride] |  |
|  |  |  | 7.31 | CCCCn1c(=O)n(CCN2C[C@@H]3CCc4c(OC)cccc4[C@@H]3C2)c(=O)c2sc3nccnc3c21 [Example 101, hydrochloride] |  |
|  |  |  | 9.43 | COc1cccc2c1CC[C@H]1CN(CCn3c(=O)[nH]c4c(sc5nc(C)c(C)nc54)c3=O)C[C@@H]21 [Example 103, hydrochloride] |  |
|  |  |  | 9.74 | COCCn1c(=O)n(CCN2C[C@@H]3CCc4c(OC)cccc4[C@@H]3C2)c(=O)c2sc3nccnc3c21 [Example 104, 3-[2-(cis-(3aR,9bR)-6-Methoxy-2,3,3a,4,5,9b-hexahydro-[1H]-benz[e]isoindol-1-yl)ethyl]-1-(2-methoxyethyl)pyrazino[2',3':4,5]thieno[3,2-d]pyrimidine-2,4(1H,3H)-dione hydrochloride] |  |
|  |  |  | 8.58 | COCCn1c(=O)n(CCN2C[C@@H]3CCc4c(OC)cccc4[C@@H]3C2)c(=O)c2sc3cccnc3c21 [Example 105, hydrochloride] |  |
|  |  |  | 8.00 | CCOc1cccc2c1CC[C@H]1CN(CCn3c(=O)[nH]c4c(sc5ncccc54)c3=O)C[C@@H]21 [Example 109, hydrochloride] |  |
|  |  |  | 8.22 | CCc1cccc2c1CC[C@H]1CN(CCn3c(=O)[nH]c4c(sc5cccnc54)c3=O)C[C@@H]21 [Example 113, dihydrochloride] |  |
|  |  |  |  | COc1cc2nc(N3CCN(C(=O)C4COc5ccccc5O4)CC3)nc(N)c2cc1OC (stereo not drawn) [doxazosin, reference compound] | more potent effect on spleen smooth muscle ([2]; PE-induced contraction, pA2 models compared): more potent effect on spleen smooth muscle by approximately an order of magnitude |

Reference: patent publication US5597823A, “Tricyclic substituted hexahydrobenz [e]isoindole alpha-1 adrenergic antagonists” (priority 1995, dated 1997)
